Test: Human HepG2 cell viability assay in 384 well format
Type: toxicity, cell-based
Design: dose 125 nL, time 70.5 hour; concentration not given beside the values
Details: HepG2 cells, read-out: Inhibition

Structure (SMILES)	cytotoxicity at 70.5 h
O=C(c1ccc(-n2cccn2)nc1)N1CCC(c2ccn[nH]2)C1 (configuration not stated)	-8.23%
CS(=O)(=O)CCN1CCN(c2ccc(Cl)cn2)CC1	1.44%
O=C(NCCc1nncn1C1CC1)C1(c2ccccc2)CCC1	-5.9%
COCCS(=O)(=O)NC(C)c1cccc(-n2cccn2)c1 (configuration not stated)	0.445%
CCC(NC(=O)c1ccc(OC)nn1)c1nc(C(F)(F)F)cs1 (configuration not stated)	-6.03%
CCCS(=O)(=O)CC(=O)NC(C)c1cccc(-n2cccn2)c1 (configuration not stated)	10.5%
CC(NCc1cnn(C)c1)c1noc(-c2ccc(Cl)cc2)n1 (configuration not stated)	-5.15%
CCC(C)Oc1cc(C(=O)N(c2cccnc2)C(C)C)ccn1 (configuration not stated)	0.858%
CC(NS(=O)(=O)N(C)C)c1cccc(-n2cccn2)c1 (configuration not stated)	-3.97%
O=C(C1CC1)N(CCc1ccccc1)C1CCOC1 (configuration not stated)	-6.28%
Cn1ccnc1C(O)(CCNCc1ccc(Cl)o1)C(F)(F)F (configuration not stated)	-14.8%
Cn1ccnc1C(O)(CCNCc1ccco1)C(F)(F)F (configuration not stated)	5.83%
CC(=O)N1CCC(Oc2cccc(C#N)c2)CC1	13.4%
Cn1cc(C(NCc2ccc(F)cc2)c2cccc(F)c2)cn1 (configuration not stated)	-13.5%
COc1ccc(CN2CCCC(n3cccn3)C2)c(Cl)c1OC (configuration not stated)	-9%
CC(C(=O)N(C)Cc1ccc(Br)o1)n1cncn1 (configuration not stated)	-1.04%
COc1cccc(COCC(=O)NC2CCN(CC(N)=O)CC2)c1	-5.13%
Cc1ccc(S(=O)(=O)NCc2[nH]ncc2Br)cc1C	-8.92%
Cc1ccc(C(C)NC(=O)Cc2c(C)nc3cc(=O)[nH]n3c2C)s1 (configuration not stated)	-10.8%
CC/C=C(/C)C(=O)N1CSCC1C(=O)NC1=NCCS1 (configuration not stated)	-7.18%
Cc1ccc(NC2CCN(C(=O)CCC3CCCO3)CC2)nn1 (configuration not stated)	-3.33%
CCC(C)(O)CNc1ccc(S(=O)(=O)C(F)F)cc1 (configuration not stated)	-5.3%
CNC(=O)C(CC(C)C)NC(=O)c1cccc(-c2nc(C)cs2)c1 (configuration not stated)	15.4%
COCC(O)CNc1cncc(Br)c1 (configuration not stated)	-2.5%

Structure (SMILES)	cytotoxicity at 70.5 h
Cc1ccc(CNC(=O)c2ccc(CNS(C)(=O)=O)o2)cc1F	17.8%
O=C(CCc1nc(-c2cccnc2)no1)N(CC1CCOC1)C1CC1 (configuration not stated)	12%
CC(C)(C)c1noc(CCC(=O)N(CC2CCOC2)C2CC2)n1 (configuration not stated)	2.82%
COCCN1CC(C(=O)N(C)Cc2ccc(Cl)s2)CC1=O (configuration not stated)	-10.5%
Cc1ccc(CN(C)C(=O)C(C)n2cncn2)o1 (configuration not stated)	-4.1%
COc1c(C)cnc(CN2CCn3c(nnc3C3CC3)C2)c1C	-2.97%
c1ccc(CCN2CCC(OCC3CCCCO3)CC2)nc1 (configuration not stated)	5.3%
Cc1cccc2nc(CN3CCC(N4CCN(C)C4=O)CC3)cn12	-4.38%
CC(C)(C)NC(=O)CNc1ncccn1	-8.78%
CN(C)CCN(Cc1ccc(Cl)cc1)C(=O)c1ccn(C)c(=O)c1	-5.83%
Cc1cc(C(=O)NC(C)Cc2ccc(N(C)C)cc2)n(C)n1 (configuration not stated)	-1.34%
Cc1cc(C)n2cc(CN3CCC(N4CCN(C)C4=O)CC3)nc2n1	-0.599%
c1cnc(N2CCC(OCC3CCCCO3)CC2)nc1 (configuration not stated)	-2.08%
COC(=O)NCC(=O)N1CCC(c2cc3ccccc3[nH]2)CC1	-8.79%
Clc1cccc(C(CNCc2ccccn2)N2CCOCC2)c1 (configuration not stated)	48.6%
CCOC1CCCN(C(=O)CCOc2ccc(C)cc2OC)C1 (configuration not stated)	24.8%
CNS(=O)(=O)c1ccc(F)c(C(=O)NCc2ccnc(OC)c2)c1	25.8%
CC(C)CC(=O)N1CCC2(CC1)OCCO2	-6.38%
CC(C)C(C)NC(=O)CNc1cc2c(cc1Cl)NC(=O)CO2 (configuration not stated)	6.71%
CC(NC(=O)CNc1cc2c(cc1Cl)OCCO2)c1ccco1 (configuration not stated)	-8.18%
COc1ccc(-c2nc(CCNC(=O)NC3CCC(O)CC3)co2)cc1 (configuration not stated)	17.3%
CCN(C)c1cc(CNC(=O)CNC(=O)CC2CCCCC2)ccn1	-16.4%
Clc1cccc(C(CNc2ncccn2)N2CCOCC2)c1 (configuration not stated)	-5.68%
CCc1[nH]c(C2(N)CCCCC2)nc(=O)c1C	-4.64%

Structure (SMILES)	cytotoxicity at 70.5 h
CCc1[nH]c(C2(N)CCCC2)nc(=O)c1C	19.5%
CCOC1CCN(C(=O)NCc2cccc(-n3cccn3)c2)CC1	-5.08%
NC(=O)CC1CCN(C(=O)NCc2cccc(-n3cccn3)c2)CC1	-1.91%
CCSCc1csc(-c2ccc(S(C)(=O)=O)cc2)n1	-2.67%
COc1ccc(Cl)cc1CCNC(=O)NCc1ncnn1C	-13.1%
COc1cc(C)ccc1OCC(=O)NS(=O)(=O)c1cccnc1	-3.71%
CC(C)(C)c1nccc(N2CCCCC2CCNS(C)(=O)=O)n1 (configuration not stated)	2.95%
CCc1noc(Cn2c(=O)c3c(C(F)(F)F)cc(C)nc3n2C)n1	19.2%
CCS(=O)(=O)NCC(=O)NC(c1cc(C)sc1C)C(C)C (configuration not stated)	-0.761%
Cc1cc(Cn2c(=O)c3c(C(F)(F)F)cc(C)nc3n2C)on1	-3.01%
COc1cccc(OC)c1CC(=O)NC(C#N)c1ccsc1 (configuration not stated)	-12.5%
N#CC(NC(=O)CNC(=O)c1ccccc1)c1ccsc1 (configuration not stated)	-3.11%
Cc1cc(C(NC(=O)CNS(C)(=O)=O)C(C)C)c(C)s1 (configuration not stated)	1.39%
COc1cc(C)ccc1OCCC(=O)N1CCCC(n2cncn2)C1 (configuration not stated)	-9.18%
CC(C)COc1cncc(N2CCCN(CC(F)(F)F)CC2)n1	-5.33%
Cc1nc2n(n1)CC(NCc1c(Cl)ccc3cccnc13)CC2 (configuration not stated)	-9.95%
O=S(=O)(NCCc1cn2ccccc2n1)N1CCOCC1	-7.24%
CC(NC(=O)N1CCCCCC1)c1ccc(S(N)(=O)=O)cc1 (configuration not stated)	-7.46%
CC(NC(=O)N1CCC1)c1ccc(S(N)(=O)=O)cc1 (configuration not stated)	-7.27%
Cc1noc(C2CCN(Cn3cc(Cl)cn3)CC2)n1	-4.35%
CC(NC(=O)N1CCCN(C)CC1)c1ccc(S(N)(=O)=O)cc1 (configuration not stated)	-4.13%
NC(=O)C1CCN(c2ccc(C(=O)N3CCc4ccccc43)cn2)C1 (configuration not stated)	-4.05%
COc1ccc(CCNC(=O)c2ccc(=O)n(C)c2)c(Cl)c1	-7.56%
CC(CC(=O)c1ccccc1)NC(=O)c1ccon1 (configuration not stated)	-5.06%

Structure (SMILES)	cytotoxicity at 70.5 h
CCOc1ccc(Cl)cc1CCNC(=O)Cn1nc(C)ccc1=O	7.64%
NC(=O)[C@@H]1Cc2ccccc2N1C(=O)C1CC(c2ccccc2)=NO1 (some centres not stated)	6.72%
CC(C)COc1cncc(N2CCCN(c3ncccn3)CC2)n1	-7.71%
CC(C)n1ccc(C(=O)OCC2CC(=O)N(Cc3ccccc3)C2)n1 (configuration not stated)	-8.67%
O=C(CNC(=O)c1ccc(Cl)cc1)Nc1nccs1	20.2%
CC(C)N1CCC(NC(=O)NCc2ccccc2)CC1	-0.0959%
Cn1c(SCc2noc(C(C)(C)C)n2)nnc1C1CCS(=O)(=O)C1 (configuration not stated)	-7.06%
CC(C)CN1CCC(NC(=O)NCCC(=O)NCc2ccccc2)CC1	-2.46%
Cc1noc(C)c1CS(=O)(=O)CC(=O)NCCc1ccccc1	15.9%
COCCCC(=O)Nc1[nH]nc(-c2ccncc2)c1C	-3.19%
CC(C)(CNC(=O)C1CCCN(C(N)=O)C1)c1cccc(Cl)c1 (configuration not stated)	9.61%
NC(=O)Nc1cccc(CNC(=O)CCCOCc2ccccc2)c1	2.63%
CCc1[nH]ncc1C(=O)N1CCN(c2nccc(OC)n2)CC1	-3.61%
Cc1nc2n(n1)CC(NCc1ccccc1OCC(=O)N(C)C)CC2 (configuration not stated)	-3.73%
Cn1nc2c(cc1=O)CN(CCCOc1ccc(C#N)cc1)CC2	-5.17%
CC(C)N1CCC(NC(=O)NCc2cccnc2)C1 (configuration not stated)	-1.38%
Cc1ccccc1C(=O)NCCC(=O)NS(=O)(=O)c1cccnc1	19.3%
O=C(CCNC(=O)NC1CCN(C2CC2)CC1)NCc1ccccc1	-3.29%
OCCN(Cc1cccnc1)c1ccc(Cl)cn1	-2.8%
CCc1nc2n(n1)CC(NCc1ccccc1OCC(=O)NC)CC2 (configuration not stated)	-2.9%
COC(=O)c1oc(CNC(C)(C)c2ccc3c(c2)OCCO3)cc1C	20.9%
CC(C)c1cc(C(=O)N2CCN(Cc3ccc(C#N)cc3)CC2)n[nH]1	-4.18%
COc1ccnc(N2CCN(C(=O)c3csc(C)n3)CC2)n1	-4.93%
COc1ccnc(N2CCN(C(=O)c3csnn3)CC2)n1	-3.32%

Structure (SMILES)	cytotoxicity at 70.5 h
Cc1cc2n(n1)CC(CNC1CCN(CCc3ccccc3)CC1)CN2 (configuration not stated)	0.368%
CCOc1cc(C)ccc1NS(=O)(=O)c1cc(C)c(C(=O)O)s1	-1.53%
Cc1nc(CN2CCC(CNC(=O)C3(C)CCCC3)CC2)oc1C	-4.66%
CC(NC(=O)Nc1ccccc1CN1CCOCC1)c1nccs1 (configuration not stated)	-2.17%
Cc1ccsc1C(=O)NC1CCN(c2cnn(C)c2)C1=O (configuration not stated)	17.9%
Cn1cc(N2CCC(NC(=O)c3ccccc3Cl)C2=O)cn1 (configuration not stated)	1.26%
Cn1cc(N2CCC(NC(=O)c3c(F)cccc3Cl)C2=O)cn1 (configuration not stated)	-3.25%
CSC(C)(C)CNC(=O)NCc1cccc(-n2cncn2)c1	-0.656%
Cc1nc(CN2CCC(CNC(=O)C3CCOC3)CC2)oc1C (configuration not stated)	16.3%
CCC(CC)c1cc(CNC(=O)N2CCCN(C(C)=O)CC2)on1	-3.25%
Cc1noc(CCCC(=O)NC(C)c2nnc3n2CCC3)n1 (configuration not stated)	-4.98%
CCN1CCN(c2ccc(F)cc2C(C)NCc2cscn2)CC1 (configuration not stated)	-3.66%
COCc1nc(C(=O)N2CCN(c3nccc(OC)n3)CC2)cs1	14.1%
O=C(CCNC(=O)c1sccc1-c1ccccc1)NC1CCS(=O)(=O)C1 (configuration not stated)	-9.28%
O=C(CNc1cc2c(cc1Cl)OCCO2)NCC(F)(F)F	-3.78%
O=C1CC2(CCCCC2)C(=O)N1CC(O)COCc1ccccc1F (configuration not stated)	-4.1%
CCN(CC(=O)NC)S(=O)(=O)N1CCCCC1	-7.25%
CCN1CCC(NC(=O)Cn2cc(C)c3ccccc32)CC1	8.33%
Cc1cn(CC(=O)NC2CCC3(CC2)OCCO3)c2ccccc12	-6.58%
NCc1ccc(Oc2ccc(F)c(F)c2)cc1C(F)(F)F	-0.173%
c1cc(CNCc2ccnc(N3CCCC3)c2)c2c(c1)OCCO2	5.3%

Source: ChEMBL document CHEMBL3507680, “University of Dundee, Gates Library screen for HepG2 cell viability”
